Results from PMC10746708, “A small molecule iCDM-34 identified by in silico screening suppresses HBV DNA through activation of aryl hydrocarbon receptor” (Cell Death Discovery, 2023).

How the values were obtained:
[1] = Liver microsomal stability, human; assay type: in vitro ADME; settings: human liver microsomes
Protocol: Liver microsome stability studies (human, mouse, and rat) were performed at Sumika Chemical Analysis Service (Osaka, Japan) by following an established procedure. A mixture of 1 μM of substrate, 0.5 mg protein/mL of microsomes, and […] β-NADPH was incubated for 30 or 60 min and % remaining substrate was quantitatively measured by LC-MS/MS.

HBV genotype C [2] = test: Anti-HBV activity in HBV-infected PXB cells (HBV DNA by qPCR); assay type: cell-based
Protocol: PXB cells (primary cultured human hepatocytes) were purchased from PhoenixBio (Higashi-Hiroshima, Japan) and cultured on collagen type I-coated 96- or 24-well plates in hepatocyte clonal growth medium at 37 °C and 5 % CO2 as previously described. RealTime-Glo MT Cell Viability Assay (Promega) and XTT assay were performed according to a previously established protocol.
(§1) PXB cells were plated on 96-well plate and infected with three genome equivalents per cell of HBV C_AT [33], and the medium was changed every 3 or 4 days. […] After treatment with these compounds, cellular DNA, medium DNA, and total RNA were automatically purified as per our previously established protocol. RNA purification of total RNA from cultured cells in the 24-well plate was performed using the RNeasy Mini Kit (Qiagen, Germantown, MD, USA) according to the manufacturer’s instructions.
HBV DNA copy numbers were determined using TaqMan Gene Expression Master Mix (Thermo Fisher Scientific) or Probe qPCR Mix (Takara Bio), specific primers, and probes in a qPCR system (Light Cycler 96 System, Roche, Basel, Switzerland or CFX96 Touch Real-Time PCR Detection System, Bio-Rad Laboratories, Hercules, CA, USA). The specific primers and probe used for detection of HBV DNA were as follows: forward primer: 5′-[…]-3′, reverse primer: 5′-[…]-3′, and probe: 5′-[FAM] […][TAM]-3′.

HBV genotype C [3] = test: HBsAg and HBeAg in culture medium by ELISA; assay type: cell-based; settings: 30 µM, 7 days
Protocol: as §1
HBsAg and HBeAg levels in the cell culture medium were measured using Enzygnost HBsAg 6.0 and Enzygnost HBe monoclonal (Siemens, Munich, Germany), respectively, according to the manufacturer’s instructions.

JAK/STAT signaling = test: Western blotting of phospho-STAT1, STAT2, STAT3 in HCV replicon cells; assay type: cell-based, human; settings: 30 μM, 24 h
Protocol: HCV replicon cells were treated with 30 μM CDM-3008, iCDM-17, and iCDM-34 for 1 day. The cells were lyzed with 1 x SDS sample buffer containing PhosStop, Complete EDTA free, and 1 mM EDTA. After sonication for 30 s, the lysates were centrifuged at 12,000g for 10 min at 4 °C, and then the supernatants were collected. After reducing the 20 μg of supernatants with 50 mM DTT at 98 °C for 2 min, the samples were separated by SDS-PAGE. STAT1, STAT2, STAT3, pSTAT1, pSTAT2, and pSTAT3 were detected by Western blotting using anti-STAT1 (9175, 1/1000), STAT2 (72604, 1/1000), STAT3 (12640, 1/1000), pSTAT1 (Y701) (7649, 1/1000), pSTAT2 (Y690) (88410, 1/1000), and pSTAT3 (Y705) (9145, 1/1000) antibodies (Cell signaling technology, Massachusetts, USA).

HBV-infected PXB cells = test: pgRNA and OAS1 mRNA by qPCR in HBV-infected PXB cells; assay type: cell-based, human; settings: 7 days
Protocol: mRNA expression levels were measured by qPCR using specific primers or sets of specific primers and probe. RNA was reverse transcribed using PrimeScript RT Master Mix (Takara Bio, Shiga, Japan) to synthesize complementary DNA (cDNA). OAS1,glyceraldehyde 3-phosphate dehydrogenase (GAPDH), β-actin mRNA expression levels were measured using specific primers and TB Green Premix Ex Taq II (Takara Bio). AhR (Hs00169233_m), CDK1 (Hs00938777_m), CDK2 (Hs01548894_m) mRNA expression levels were measured using specific probe and primer sets (Thermo Fisher Scientific, Waltham, MA, USA) and Probe qPCR mix (Takara Bio) in a CFX96 Touch Real-Time PCR Detection System (Bio-Rad Laboratories, Hercules, CA, USA). The specific primers used in this study were OAS1 (forward primer: 5′-[…]-3′, reverse primer: 5′-[…]-3′), reverse primer: 5′-[…]-3′, and GAPDH (forward primer: 5′-[…]-3′, reverse primer: 5′-[…]-3′). β-actin (forward primer: forward primer: 5′-[…]-3′ and reverse primer: 5′-[…]-3′). Expression levels were determined using the 2^–ΔΔCt method and were normalized to endogenous β-actin mRNA expression levels.
PXB cells were plated on 96-well plate and infected with three genome equivalents per cell of HBV C_AT [33], and the medium was changed every 3 or 4 days. […]

[4] = Metabolic analysis in vivo: blood concentration after injection; settings: PXB-mice (cDNA-uPA^wild/+/SCID), other: injection, human hepatocyte-chimeric mouse, blood at 5-480 min, n = 1, read-out: t1/2 in blood
HCV replicon cells = test: HCV replicon luciferase assay; assay type: cell-based; settings: 0.05–30 µM, 3 days
Protocol: HCV replicon cells were plated on clear and white 96-well plates (TPP, 92096 and Greiner Bio-one, 655083) in DMEM, high glucose, GlutaMAX Supplement (Thermo Fisher Scientific, Waltham, MA, USA) containing 10 % fetal bovine serum, penicillin, and streptomycin. After 1 day, the cells were treated with 0.05–30 µM of iCDM-17 and iCDM-34 for 3 days. The quantity of HCV replicons was measured by a luciferase assay using Steady-Glo Luciferase Assay System (Promega, Madison, WI, USA). The cell viability was measured by XTT assay using Cell proliferation kit II (Roche, Mannheim, Germany) according to the established protocol.

Compound O=C(Nc1ccc(Br)cc1)c1ccn(Cn2cc([N+](=O)[O-])cn2)n1 [iCDM-34] has a half-life at 1 μM [1] of 8.43 h, a remaining at 0.5 h, 1 μM ([1]; 1 μM substrate, 0.5 mg protein/mL, 30 min) of 96.2 ± 3.2% and a remaining at 1 h, 1 μM ([1]; 1 μM substrate, 0.5 mg protein/mL, 60 min) of 94.1 ± 3.3%. For the same compound, the “medium HBV DNA” value (HBV genotype C [2]; 30 µM, 7 days) was “inhibited”, the “effect of combination with ETV on cellular HBV DNA” value (HBV genotype C [2]; 3 and 30 µM with 10 nM ETV, 7 days) was “additive effects” and the “cellular HBV DNA” value (HBV genotype C [2]; 3 and 30 µM, 7 days, dose-dependent) was “decreased”. The IC50 (HBV genotype C [2]; Hepatitis B virus, 168 h, HBV genotype C-infected PXB cells, 0.03–100 µM for 7 days, qPCR, read-out: half maximal inhibitory concentration, cellular HBV DNA) was 19.7 µM, the HBeAg in medium (HBV genotype C [3]) was “inhibited” and the HBsAg in medium (HBV genotype C [3]) was “inhibited”. For the same compound, the “phosphorylation of STAT1, STAT2, and STAT3” value (JAK/STAT signaling) was “not induced”, the pgRNA expression level (HBV-infected PXB cells; 30 µM) was “significantly decreased” and the “expression of OAS1 (ISG)” value (HBV-infected PXB cells; 0.0003–30 μM) was “no increase”. For the same compound, the half-life [4] was 0.383 h and the “HCV replication (replicon luciferase)” value (HCV replicon cells) was “suppressed”.
